Earlier results as cited in patent publication US6613768B1, “Treatment of female arousal disorder” (Lilly ICOS LLC, priority 1999, dated 2003).
Where a name gives a salt, the structure may show the parent alone.

System: postmenopausal women with sexual dysfunction

For `CCCc1nn(C)c2c(=O)[nH]c(-c3cc(S(=O)(=O)N4CCN(C)CC4)ccc3OCC)nc12` [sildenafil, Sildenafil citrate], the “women with clitoral discomfort/hypersensitivity who withdrew from the study” value (of the 7 women affected) is given as 3 and the “clitoral discomfort and hypersensitivity, number of women” value (thirty-three postmenopausal women) is given as 7 woman.
